Each structure is given as a SMILES string.

Sequence of interaction between p53 and MDM2 proteins (recombinant GST-tagged MDM2, biotinylated p53 peptide) (Q00987 whole entry): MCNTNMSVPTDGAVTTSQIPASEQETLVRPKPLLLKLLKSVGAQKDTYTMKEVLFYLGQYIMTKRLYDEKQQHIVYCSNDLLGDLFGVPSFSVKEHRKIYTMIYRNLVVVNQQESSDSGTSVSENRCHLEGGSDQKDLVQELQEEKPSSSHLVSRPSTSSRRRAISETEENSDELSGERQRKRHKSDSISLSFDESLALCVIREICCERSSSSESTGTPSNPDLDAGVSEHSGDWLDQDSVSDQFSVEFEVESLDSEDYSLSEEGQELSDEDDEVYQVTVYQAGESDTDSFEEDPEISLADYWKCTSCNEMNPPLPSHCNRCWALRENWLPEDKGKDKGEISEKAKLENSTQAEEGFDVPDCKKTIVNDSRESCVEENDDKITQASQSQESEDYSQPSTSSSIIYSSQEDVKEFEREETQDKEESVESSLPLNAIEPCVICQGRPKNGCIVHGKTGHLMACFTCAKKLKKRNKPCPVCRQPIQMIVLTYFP

This experiment has as its target interaction between p53 and MDM2 proteins (recombinant GST-tagged MDM2, biotinylated p53 peptide) (Homo sapiens, UniProt Q00987). Nature of the experiment: HTRF assay of inhibition of the p53-MDM2 interaction. It is filed as binding. The settings on record: bsa: 0.02%. The procedure:
The ability of the compounds to inhibit the interaction between p53 and MDM2 proteins was measured by an HTRF (homogeneous time-resolved fluorescence) assay in which recombinant GST-tagged MDM2 binds to a peptide that resembles the MDM2-interacting region of p53. Binding of GST-MDM2 protein and p53-peptide (biotinylated on its N-terminal end) is registered by the FRET (fluorescence resonance energy transfer) between Europium (Eu)-labeled anti-GST antibody and streptavidin-conjugated Allophycocyanin (APC).
[…] Add 10 uL diluted compounds (1:5 dilution in reaction buffer) to each well, mix by shaking. Add 20 uL biotinylated p53 peptide (180 nM working solution) in reaction buffer to each well and mix on shaker. Incubate at 37° C. for 1 h. Add 20 uL streptavidin-APC and Eu-anti-GST antibody mixture (6 nM Eu-anti-GST and 60 nM streptavidin-APC working solution) in TBS buffer with 0.2% BSA, shake at room temperature for 30 minutes and read using a TRF-capable plate reader at 665 and 615 nm (Victor 5, Perkin ElmerWallac). If not specified, the reagents were purchased from Sigma Chemical Co.
By IC50 is commonly meant the concentration at which inhibition is half-maximal. Take `COc1cc(C(=O)O)ccc1N1CN2[C@@H](CC(C)(C)C)[C@@]3(C(=O)Nc4cc(C)ncc43)[C@@H](c3cccc(Cl)c3F)[C@@H]2C1=O` (racemic) [Example 2, rac-4-((3′R,5S,7S,7aR)-7-(3-chloro-2-fluorophenyl)-6′-methyl-5-neopentyl-1,2′-dioxo-1′,2′,7,7a-tetrahydrospiro[pyrrolo[1,2-c]imidazole-6,3′-pyrrolo[3,2-c]pyridine]-2(1H,3H,5H)-yl)-3-methoxybenzoic acid]: the concentration for half-maximal inhibition (IC50) stood at 102 nM.
Regarding `COc1cc(C(N)=O)ccc1N1CN2[C@@H](CC(C)(C)C)[C@@]3(C(=O)Nc4cc(C)ncc43)[C@@H](c3cccc(Cl)c3F)[C@@H]2C1=O` (racemic) [Example 3a, rac-4-((3′R,5S,7S,7aR)-7-(3-chloro-2-fluorophenyl)-6′-methyl-5-neopentyl-1,2′-dioxo-1′,2′,7,7a-tetrahydrospiro[pyrrolo[1,2-c]imidazole-6,3′-pyrrolo[3,2-c]pyridine]-2(1H,3H,5H)-yl)-3-methoxybenzamide], the half-maximal inhibitory concentration (IC50) is 89.9 nM.
Consider `COc1cc(C(N)=O)ccc1N1CN2[C@@H](CC(C)(C)C)[C@]3(C(=O)Nc4cc(C)ncc43)[C@@H](c3cccc(Cl)c3F)[C@@H]2C1=O` (racemic) [Example 3b, rac-4-((3′S,5S,7S,7aR)-7-(3-chloro-2-fluorophenyl)-6′-methyl-5-neopentyl-1,2′-dioxo-1′,2′,7,7a-tetrahydrospiro[pyrrolo[1,2-c]imidazole-6,3′-pyrrolo[3,2-c]pyridine]-2(1H,3H,5H)-yl)-3-methoxybenzamide], for which the IC50 amounted to 1160 nM.
In the case of `COc1cc(C(=O)O)ccc1N1CN2[C@@H](CC(C)(C)C)[C@@]3(C(=O)Nc4ccncc43)[C@@H](c3cccc(Cl)c3F)[C@@H]2C1=O` (racemic) [Example 5, rac-4-((3′R,5S,7S,7aR)-7-(3-chloro-2-fluorophenyl)-5-neopentyl-1,2′-dioxo-1′,2′,7,7a-tetrahydrospiro[pyrrolo[1,2-c]imidazole-6,3′-pyrrolo[3,2-c]pyridine]-2(1H,3H,5H)-yl)-3-methoxybenzoic acid], the half-inhibitory concentration (IC50) was 797 nM.
Consider `COc1cc2c(cn1)[C@@]1(C(=O)N2)[C@H](CC(C)(C)C)N2CN(c3ccc(C(=O)O)cc3OC)C(=O)[C@H]2[C@@H]1c1cccc(Cl)c1F` (racemic) [Example 6, rac-4-((3′R,5S,7S,7aR)-7-(3-chloro-2-fluorophenyl)-6′-methoxy-5-neopentyl-1,2′-dioxo-1′,2′,7,7a-tetrahydrospiro[pyrrolo[1,2-c]imidazole-6,3′-pyrrolo[3,2-c]pyridine]-2(1H,3H,5H)-yl)-3-methoxybenzoic acid], for which the half-maximal inhibitory concentration (IC50) amounted to 23 nM.
On to `COc1cc2c(cn1)[C@@]1(C(=O)N2)[C@H](CC(C)(C)C)N2CN(c3ccc(C(N)=O)cc3OC)C(=O)[C@H]2[C@@H]1c1cccc(Cl)c1F` (racemic) [Example 7, rac-4-((3′R,5S,7S,7aR)-7-(3-chloro-2-fluorophenyl)-6′-methoxy-5-neopentyl-1,2′-dioxo-1′,2′,7,7a-tetrahydrospiro[pyrrolo[1,2-c]imidazole-6,3′-pyrrolo[3,2-c]pyridine]-2(1H,3H,5H)-yl)-3-methoxybenzamide], for which the IC50 was found to be 15 nM.
As to `COc1cc(C(=O)O)ccc1N1CN2[C@@H](CC(C)(C)C)[C@@]3(C(=O)Nc4nc(Cl)ccc43)[C@@H](c3cccc(Cl)c3F)[C@@H]2C1=O` (racemic) [Example 9, rac-4-((3′R,5S,7S,7aR)-6′-chloro-7-(3-chloro-2-fluorophenyl)-5-neopentyl-1,2′-dioxo-1′,2′,7,7a-tetrahydrospiro[pyrrolo[1,2-c]imidazole-6,3′-pyrrolo[2,3-b]pyridine]-2(1H,3H,5H)-yl)-3-methoxybenzoic acid], the IC50 was 15 nM.
To `COc1cc(C(N)=O)ccc1N1CN2[C@@H](CC(C)(C)C)[C@@]3(C(=O)Nc4nc(Cl)ccc43)[C@@H](c3cccc(Cl)c3F)[C@@H]2C1=O` (racemic) [Example 10, rac-4-((3′R,5S,7S,7aR)-6′-chloro-7-(3-chloro-2-fluorophenyl)-5-neopentyl-1,2′-dioxo-1′,2′,7,7a-tetrahydrospiro[pyrrolo[1,2-c]imidazole-6,3′-pyrrolo[2,3-b]pyridine]-2(1H,3H,5H)-yl)-3-methoxybenzamide] belongs 19.3 nM; to `COc1cc(C(=O)O)ccc1N1CN2[C@@H](CC(C)(C)C)[C@@]3(C(=O)Nc4ncccc43)[C@@H](c3cccc(Cl)c3F)[C@@H]2C1=O` (racemic) [Example 15, rac-4-((3′R,5S,7S,7aR)-7-(3-chloro-2-fluorophenyl)-5-neopentyl-1,2′-dioxo-1′,2′,7,7a-tetrahydrospiro[pyrrolo[1,2-c]imidazole-6,3′-pyrrolo[2,3-b]pyridine]-2(1H,3H,5H)-yl)-3-methoxybenzoic acid], 96 nM; to `COc1cc(C(=O)O)ccc1N1CN2[C@@H](CC(C)(C)C)[C@@]3(C(=O)Nc4cc(C)cnc43)[C@@H](c3cccc(Cl)c3F)[C@@H]2C1=O` (racemic) [Example 16, rac-4-((3′S,5S,7S,7aR)-7-(3-chloro-2-fluorophenyl)-6′-methyl-5-neopentyl-1,2′-dioxo-1′,2′,7,7a-tetrahydrospiro[pyrrolo[1,2-c]imidazole-6,3′-pyrrolo[3,2-b]pyridine]-2(1H,3H,5H)-yl)-3-methoxybenzoic acid], 21.8 nM.
To `COc1cc(C(N)=O)ccc1N1CN2[C@@H](CC(C)(C)C)[C@@]3(C(=O)Nc4cc(Cl)ncc43)[C@@H](c3cccc(Cl)c3F)[C@@H]2C1=O` [Example 1, 4-((3′R,5S,7S,7aR)-6′-chloro-7-(3-chloro-2-fluorophenyl)-5-neopentyl-1,2′-dioxo-1′,2′,7,7a-tetrahydrospiro[pyrrolo[1,2-c]imidazole-6,3′-pyrrolo[3,2-c]pyridine]-2(1H,3H,5H)-yl)-3-methoxybenzamide] belongs 6.8 nM; to `COc1cc(C(N)=O)ccc1N1C(=O)[C@H]2[C@H](c3cccc(Cl)c3F)[C@]3(C(=O)Nc4cc(Cl)ncc43)[C@H](CC(C)(C)C)N2[C@@H]1C` [Example 11, 4-((3S,3′R,5S,7S,7aR)-6′-chloro-7-(3-chloro-2-fluorophenyl)-3-methyl-5-neopentyl-1,2′-dioxo-1′,2′,7,7a-tetrahydrospiro[pyrrolo[1,2-c]imidazole-6,3′-pyrrolo[3,2-c]pyridine]-2(1H,3H,5H)-yl)-3-methoxybenzamide], 7.5 nM; to `CC[C@@H]1N(c2ccc(C(N)=O)cc2OC)C(=O)[C@H]2[C@H](c3cccc(Cl)c3F)[C@]3(C(=O)Nc4cc(Cl)ncc43)[C@H](CC(C)(C)C)N12` [Example 12, 4-((3S,3′R,5S,7S,7aR)-6′-chloro-7-(3-chloro-2-fluorophenyl)-3-ethyl-5-neopentyl-1,2′-dioxo-1′,2′,7,7a-tetrahydrospiro[pyrrolo[1,2-c]imidazole-6,3′-pyrrolo[3,2-c]pyridine]-2(1H,3H,5H)-yl)-3-methoxybenzamide], 7 nM.
On to `COc1cc(C(N)=O)ccc1N1C(=O)[C@H]2[C@H](c3cccc(Cl)c3F)[C@]3(C(=O)Nc4cc(Cl)ncc43)[C@H](CC(C)(C)C)N2[C@@H]1CO` [Example 13, 4-((3S,3′R,5S,7S,7aR)-6′-chloro-7-(3-chloro-2-fluorophenyl)-3-(hydroxymethyl)-5-neopentyl-1,2′-dioxo-1′,2′,7,7a-tetrahydrospiro[pyrrolo[1,2-c]imidazole-6,3′-pyrrolo[3,2-c]pyridine]-2(1H,3H,5H)-yl)-3-methoxybenzamide], for which the half-maximal inhibitory concentration (IC50) was 9.6 nM.
To `COc1cc(C(N)=O)ccc1N1C(=O)[C@H]2[C@H](c3cccc(Cl)c3F)[C@]3(C(=O)Nc4cc(Cl)ncc43)[C@H](CC(C)(C)C)N2[C@@H]1CCC1CCOCC1` [Example 14, 4-((3S,3′R,5S,7S,7aR)-6′-chloro-7-(3-chloro-2-fluorophenyl)-5-neopentyl-1,2′-dioxo-3-(2-(tetrahydro-2H-pyran-4-yl)ethyl)-1′,2′,7,7a-tetrahydrospiro[pyrrolo[1,2-c]imidazole-6,3′-pyrrolo[3,2-c]pyridine]-2(1H,3H,5H)-yl)-3-methoxybenzamide] belongs 7.5 nM.

Source of the values: US20130053410A1, “SUBSTITUTED HETEROARYL 2',3',7',7A'-TETRAHYDROSPIRO[PYRROLE-3,6'-PYRROLO[1,2-C]IMIDAZOLE]-1',2(1H,5'H)-DIONE” (priority 2011, published 2013).
